Measurements taken from patent publication US20240262835A1, “PRMT5 INHIBITING COMPOUNDS AND USES THEREOF” (ANTENGENE DISCOVERY LIMITED, priority 2023, published 2024).
Where two headings read alike, the source gives them in different places.

Assays:
[1] = in vitro; conditions: dog, hepatocytes
Experimental: 1) 10 mM test compounds were provided.
(§1) 2) 30 mM positive control stock solutions: Dissolved accurate amount of positive control compounds in dimethyl sulfoxide (DMSO).
(§2) 3) 1000× Stock Solution: Diluted 10 mM test compounds and 30 mM positive control compounds to 1 mM and 3 mM with DMSO in 96-well plates.
(§3) 4) 100× Dosing Solution: Diluted 1 mM test compounds and 3 mM positive control compounds to 100 μM and 300 μM dosing solutions with ACN.
(§4) 5) Preparation of 0.5×10^6/mL cells suspension: cryopreserved cells were thawed, isolated and suspended in Incubation Medium, then diluted with pre-warmed Incubation Medium to 0.5×10^6 cells/mL.
(§5) 6) Add 198 μL of pre-warmed cell suspensions in 96-well plates.
(§6) 7) Preparation of Quenching Plate: Transfer 125 μL of stop solution in a set of pre-labeled 96-well plates.
(§7) 8) Spike 2 μL dosing solution to each well of 96-well plates in duplicate.
(§8) 9) For TO Samples, mix to achieve a homogenous suspension for about 1 min, then immediately transfer 25 μL of each sample into well containing 125 μL of ice-cold stop solution followed by mixing.
(§9) 10) Incubate all plates at 37° C. in a 95% humidified incubator at 5% CO2 to start the reactions with constant shaking.
(§10) 11) At 15, 30, 60 and 90 min, mix samples and then transfer 25 μL of each sample at each time point to well containing 125 μL of ice-cold stop solution followed by mixing.
(§11) 12) Medium Control (MC) sample plates (labeled as TO-MC and T90-MC) are prepared in the same way as cell incubation except that medium was used instead of cell suspension.
(§12) 13) At each corresponding time point, stop the reactions by removing the plates from incubator and mixing with 125 μL of ice-cold stop solution.
(§13) 14) Vortex the plates immediately on a plate shaker at 600 rpm for 10 minutes. Then, centrifuge all sample plates at 3220×g for 20 min at 4° C.
(§14) 15) After centrifugation, 80 μL/well of supernatant in the sample plates are transferred to another set of pre-labeled 96-well plates which containing 240 μL of ultra pure water according to the plate map.
(§15) 16) Analytical plates are sealed and store at 4° C. until LC-MS/MS analysis.
(§16) The remaining percents of test articles after incubation were calculated by the follow equations:
(§17) Use the following equation of first order kinetics to calculate T1/2 and CLint:

[2] = test system: cryopreserved hepatocytes; conditions: cynomolgus monkey
Experimental: 1) 10 mM test compounds were provided.
as §1, §2, §3, §4, §5, §6, §7, §8, §9, §10, §11, §12, §13, §14, §15, §16, §17

[3] = test system: cryopreserved hepatocytes; conditions: human
Experimental: 1) 10 mM test compounds were provided.
as §1, §2, §3, §4, §5, §6, §7, §8, §9, §10, §11, §12, §13, §14, §15, §16, §17

[4] = in vitro; conditions: human, hepatocytes
Experimental: 1) 10 mM test compounds were provided.
as §1, §2, §3, §4, §5, §6, §7, §8, §9, §10, §11, §12, §13, §14, §15, §16, §17

[5] = in vitro; conditions: rat, hepatocytes
Experimental: 1) 10 mM test compounds were provided.
as §1, §2, §3, §4, §5, §6, §7, §8, §9, §10, §11, §12, §13, §14, §15, §16, §17

[6] = in vitro; conditions: mouse, hepatocytes
Experimental: 1) 10 mM test compounds were provided.
as §1, §2, §3, §4, §5, §6, §7, §8, §9, §10, §11, §12, §13, §14, §15, §16, §17

[7] = in vitro; conditions: cynomolgus monkey, hepatocytes
Experimental: 1) 10 mM test compounds were provided.
as §1, §2, §3, §4, §5, §6, §7, §8, §9, §10, §11, §12, §13, §14, §15, §16, §17

[8] = test system: cryopreserved hepatocytes; conditions: dog
Experimental: 1) 10 mM test compounds were provided.
as §1, §2, §3, §4, §5, §6, §7, §8, §9, §10, §11, §12, §13, §14, §15, §16, §17

[9] = test system: cryopreserved hepatocytes; conditions: mouse
Experimental: 1) 10 mM test compounds were provided.
as §1, §2, §3, §4, §5, §6, §7, §8, §9, §10, §11, §12, §13, §14, §15, §16, §17

[10] = test system: cryopreserved hepatocytes; conditions: rat
Experimental: 1) 10 mM test compounds were provided.
as §1, §2, §3, §4, §5, §6, §7, §8, §9, §10, §11, §12, §13, §14, §15, §16, §17

[11] = Hepatic metabolic stability (HMS) assay, mouse hepatocytes; conditions: mouse, cryopreserved hepatocytes
Experimental: 1) 10 mM test compounds were provided.
as §1, §2, §3, §4, §5, §6, §7, §8, §9, §10, §11, §12, §13, §14, §15, §16, §17

[12] = test system: cryopreserved hepatocytes; assay: as above; conditions: mouse, hepatocytes
Experimental: 1) 10 mM test compounds were provided.
as §1, §2, §3, §4, §5, §6, §7, §8, §9, §10, §11, §12, §13, §14, §15, §16, §17

[13] = Hepatic metabolic stability (HMS) assay, human hepatocytes; conditions: human, cryopreserved hepatocytes
Experimental: 1) 10 mM test compounds were provided.
as §1, §2, §3, §4, §5, §6, §7, §8, §9, §10, §11, §12, §13, §14, §15, §16, §17

[14] = test system: cryopreserved hepatocytes; assay: as above; conditions: human, hepatocytes
Experimental: 1) 10 mM test compounds were provided.
as §1, §2, §3, §4, §5, §6, §7, §8, §9, §10, §11, §12, §13, §14, §15, §16, §17

[15] = Hepatic metabolic stability (HMS) assay, dog hepatocytes; conditions: dog, cryopreserved hepatocytes
Experimental: 1) 10 mM test compounds were provided.
as §1, §2, §3, §4, §5, §6, §7, §8, §9, §10, §11, §12, §13, §14, §15, §16, §17

[16] = test system: cryopreserved hepatocytes; assay: as above; conditions: dog, hepatocytes
Experimental: 1) 10 mM test compounds were provided.
as §1, §2, §3, §4, §5, §6, §7, §8, §9, §10, §11, §12, §13, §14, §15, §16, §17

[17] = Hepatic metabolic stability (HMS) assay, cynomolgus monkey hepatocytes; conditions: cynomolgus monkey, cryopreserved hepatocytes
Experimental: 1) 10 mM test compounds were provided.
as §1, §2, §3, §4, §5, §6, §7, §8, §9, §10, §11, §12, §13, §14, §15, §16, §17

[18] = test system: cryopreserved hepatocytes; assay: as above; conditions: cynomolgus monkey, hepatocytes
Experimental: 1) 10 mM test compounds were provided.
as §1, §2, §3, §4, §5, §6, §7, §8, §9, §10, §11, §12, §13, §14, §15, §16, §17

[19] = Hepatic metabolic stability (HMS) assay, rat hepatocytes; conditions: rat, cryopreserved hepatocytes
Experimental: 1) 10 mM test compounds were provided.
as §1, §2, §3, §4, §5, §6, §7, §8, §9, §10, §11, §12, §13, §14, §15, §16, §17

[20] = test system: cryopreserved hepatocytes; assay: as above; conditions: rat, hepatocytes
Experimental: 1) 10 mM test compounds were provided.
as §1, §2, §3, §4, §5, §6, §7, §8, §9, §10, §11, §12, §13, §14, §15, §16, §17

[21] = Liver microsome metabolic stability (LMS) assay, dog; conditions: dog, microsomes
[22] = Liver microsome metabolic stability (LMS) assay, human
[23] = in vitro; conditions: rat, microsomes
[24] = rat liver microsome, scaled to liver
[25] = Liver microsome metabolic stability (LMS) assay, cynomolgus monkey

Q: With `CCOc1ccc2ccc(=O)oc2c1` [Ref. 1, 7-Ethoxycoumarin] as the compound, how does the CLint scaled at 3 μM [1] read?
A: The CLint scaled at 3 μM was 3580 mL/min/kg.

Q: What about the “CLint (hep) C” value [2] of the same compound?
A: The value was 154.0 μL/min/10^6.

Q: And the “CLint (hep) H” value [3]?
A: The value was 72.1 μL/min/10^6.

Q: What about the CLint scaled at 3 μM [4] of the same compound?
A: Its CLint scaled at 3 μM is 201 mL/min/kg.

Q: And the half-life at 3 μM [4]?
A: Its half-life at 3 μM is 19.2 min.

Q: What about the CLint scaled at 3 μM [5] of the same compound?
A: Its CLint scaled at 3 μM is 184 mL/min/kg.

Q: What about the half-life at 3 μM [5] of the same compound?
A: The half-life at 3 μM was 35.3 min.

Q: And the CLint scaled at 3 μM [6]?
A: The CLint scaled at 3 μM was 7700 mL/min/kg.

Q: What about the half-life at 3 μM [6] of the same compound?
A: The half-life at 3 μM was 2.1 min.

Q: And the CLint scaled at 3 μM [7]?
A: The CLint scaled at 3 μM was 554 mL/min/kg.

Q: And the half-life at 3 μM [7]?
A: The half-life at 3 μM was 9 min.

Q: And the “CLint (hep) D” value [8]?
A: The value was 521.1 μL/min/10^6.

Q: And the “CLint (hep) M” value [9]?
A: Its value is 647.9 μL/min/10^6.

Q: And the “CLint (hep) R” value [10]?
A: The value was 39.2 μL/min/10^6.

Q: What does the source list for `O=c1ccc2ccc(O)cc2o1` [Ref. 2, 7-Hydroxycoumarin, reference compound]?
A: CLint scaled at 3 μM [11]: 7220 mL/min/kg; half-life at 3 μM [11]: 2.3 min; CLint (hep) M [12]: 608.1 μL/min/10^6; CLint scaled at 3 μM [13]: 1020 mL/min/kg; half-life at 3 μM [13]: 3 min; CLint (hep) H [14]: 367.6 μL/min/10^6; CLint scaled at 3 μM [15]: 3270 mL/min/kg; half-life at 3 μM [15]: 2.9 min; CLint (hep) D [16]: 475.1 μL/min/10^6; CLint scaled at 3 μM [17]: 2360 mL/min/kg; half-life at 3 μM [17]: 2.1 min; CLint (hep) C [18]: 655.8 μL/min/10^6; CLint scaled at 3 μM [19]: 3170 mL/min/kg; half-life at 3 μM [19]: 2 min; CLint (hep) R [20]: 678.0 μL/min/10^6

Q: Which CLint scaled at 1 μM [21] does the source give for `C[C@]12CC[C@H]3[C@@H](CCC4=CC(=O)CC[C@@]43C)[C@@H]1CC[C@@H]2O` [Ref. 4, Testosterone, reference compound] here?
A: Its CLint scaled at 1 μM is 58.7 mL/min/kg.

Q: What about the half-life at 1 μM [21] of the same compound?
A: The half-life at 1 μM was 34 min.

Q: And the microsomal CLint at 1 μM [21]?
A: Its microsomal CLint at 1 μM is 40.8 µL/min/mg.

Q: And the “CLint (mic) H” value ([22]; human liver microsome)?
A: Its value is 79.0 µL/min/mg.

Q: What about the half-life at 1 μM ([22]; human, microsomes) of the same compound?
A: The half-life at 1 μM was 17.6 min.

Q: What about the half-life [23] of the same compound?
A: Its half-life is 0.7 min.

Q: And the “CLint (liver) R” value [24]?
A: Its value is 3782.4 mL/min/kg.

Q: And the “CLint (mic) C” value ([25]; cynomolgus monkey liver microsome)?
A: Its value is 152.3 µL/min/mg.

Q: And the CLint scaled at 1 μM ([25]; cynomolgus monkey, microsomes)?
A: Its CLint scaled at 1 μM is 206 mL/min/kg.

Q: And the half-life at 1 μM ([25]; cynomolgus monkey, microsomes)?
A: The half-life at 1 μM was 9.1 min.
